Experimental data reported in publication PMC3195688, “Glucose-6-Phosphate Dehydrogenase Regulation in Anoxia Tolerance of the Freshwater Crayfish Orconectes virilis” (Enzyme Research, 2011).
Like-named read-outs stand apart in the source and are kept apart here.

Test system: T1, Glucose-6-phosphate dehydrogenase (G6PDH)
T1 construct: gene G6PD; native enzyme in crude hepatopancreas extract of aerobic control animals, not purified; mixture of low- and high-phosphate forms
Test: NADPH production at […] nm, microplate reader
Assay type: biochemical, Faxonius virilis
Conditions: untreated extract of aerobic control animals, 50 mM imidazole, pH 7.0, 22 °C, read-out: Control K m

Km (NADP+ constant)	Km (G6P constant)	Structure (SMILES)
130 ± 16 µM	–	O=P(O)(O)OC[C@H]1OC(O)[C@H](O)[C@@H](O)[C@@H]1O (some centres unmarked) [G6P]
–	150 ± 8 µM	NC(=O)c1ccc[n+]([C@@H]2O[C@H](COP(=O)(O)OP(=O)(O)OC[C@H]3O[C@@H](n4cnc5c(N)ncnc54)[C@H](OP(=O)(O)O)[C@@H]3O)[C@@H](O)[C@H]2O)c1 [NADP^+]
